The test system of one assay is HCT-116. The assay is described as follows: Cytotoxicity assay (SRB), HCT-116. The following applies: Homo sapiens, HCT-116, 72 h, HCT116 cells, SRB, three days; read-out: In Vitro Cellular Activity IC50 HCT116. Format: cell-based. A digest of the protocol:
(§1)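 Plate cells, let them attach overnight, add compound dilutions in RPMI 1640/5% FBS, and incubate 3 days (BT474 6 days). Then fix with TCA, stain with SRB, dissolve the dye in Tris and read at 540 nm.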

The subject of the next assay is BT474. The assay is described as follows: Cytotoxicity assay (SRB), BT474. It counts as cell-based. Particulars: Homo sapiens, BT-474, 144 h, BT474 cells, SRB, 6 days; read-out: In Vitro Cellular Activity IC50 BT474. In a few lines:
as §1

The next assay deals with T1, cyclin E/CDK2 enzyme (Homo sapiens, UniProt P24941).
T1 construct: made in house; host or cells: Sf9 insect cells, recombinant baculovirus
The assay is described as follows: CDK2 ELISA kinase assay (phospho-Rb ser 795 detection). The following applies: In Vitro Enzyme Assays, read-out: CDK2 IC50. Format: biochemical. In a few lines: (§2)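 Inhibition was derived from A450 relative to control wells lacking compound, following an anti-phospho-Rb Ser795 sandwich of HRP detection. The reactions combined coated GST-Rb fragment, 200 μM ATP and baculovirus-expressed cyclin/CDK enzymes, incubated for 1 h at 30° C.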
For orientation: An ELISA detects its analyte on a solid surface through an enzyme-linked reagent.

The next assay concerns MCF-7. The assay is described as follows: Cytotoxicity assay (SRB), MCF-7. The following applies: Homo sapiens, MCF7, 72 h, MCF-7 cells, SRB, three days; read-out: In Vitro Cellular Activity IC50 MCF-7. It counts as cell-based. A digest of the protocol:
as §1

The target in a further assay is T2, cyclin B/CDK1 enzyme (Homo sapiens, UniProt P06493).
T2 construct: purchased New England BioLabs; host or cells: Sf9 insect cells, recombinant baculovirus
T2 sequence (P06493 whole entry): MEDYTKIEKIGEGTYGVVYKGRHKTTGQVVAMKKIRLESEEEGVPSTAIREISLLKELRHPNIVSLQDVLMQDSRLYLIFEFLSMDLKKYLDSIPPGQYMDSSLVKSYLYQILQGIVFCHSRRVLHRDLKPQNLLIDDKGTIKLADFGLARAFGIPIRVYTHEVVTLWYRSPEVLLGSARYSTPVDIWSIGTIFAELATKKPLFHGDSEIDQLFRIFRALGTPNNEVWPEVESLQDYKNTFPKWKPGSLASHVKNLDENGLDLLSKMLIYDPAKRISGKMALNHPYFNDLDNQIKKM
T2 sequence (P14635 whole entry partner): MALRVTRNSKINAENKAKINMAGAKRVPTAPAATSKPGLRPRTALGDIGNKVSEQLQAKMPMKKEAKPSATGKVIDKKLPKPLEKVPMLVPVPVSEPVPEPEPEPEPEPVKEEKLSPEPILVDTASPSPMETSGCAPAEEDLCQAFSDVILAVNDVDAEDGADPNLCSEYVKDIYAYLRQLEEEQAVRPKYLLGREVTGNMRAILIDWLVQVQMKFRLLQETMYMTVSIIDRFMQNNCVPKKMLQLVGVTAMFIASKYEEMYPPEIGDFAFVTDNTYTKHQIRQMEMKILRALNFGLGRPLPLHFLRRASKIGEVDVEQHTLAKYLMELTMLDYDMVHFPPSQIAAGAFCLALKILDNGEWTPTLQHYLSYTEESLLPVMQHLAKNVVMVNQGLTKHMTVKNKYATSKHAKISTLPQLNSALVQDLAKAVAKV
The assay is described as follows: CDK1 ELISA kinase assay (phospho-Rb ser 795 detection). It counts as biochemical. Particulars: In Vitro Enzyme Assays, read-out: CDK1 IC50. A digest of the protocol:
as §2

The next assay addresses T3, cyclin D1/cdk 4 enzyme (Homo sapiens, UniProt P11802).
T3 construct: made in house; host or cells: Sf9 insect cells, recombinant baculovirus
Description: CDK4 ELISA kinase assay (phospho-Rb ser 795 detection). Format: biochemical. The following applies: In Vitro Enzyme Assays, 200 μM ATP, read-out: CDK4 IC50. A digest of the protocol:
as §2

Another assay relates to LoVo. Description: Cytotoxicity assay (SRB), LoVo. Format: cell-based. Particulars: Homo sapiens, LoVo, 72 h, LoVo cells, SRB, three days; read-out: In Vitro Cellular Activity IC50 LOVO. In a few lines:
as §1

The structures appear in SMILES notation. pIC50: −log10 of the molar value.

T3 sequence (P11802 whole entry, species assumed): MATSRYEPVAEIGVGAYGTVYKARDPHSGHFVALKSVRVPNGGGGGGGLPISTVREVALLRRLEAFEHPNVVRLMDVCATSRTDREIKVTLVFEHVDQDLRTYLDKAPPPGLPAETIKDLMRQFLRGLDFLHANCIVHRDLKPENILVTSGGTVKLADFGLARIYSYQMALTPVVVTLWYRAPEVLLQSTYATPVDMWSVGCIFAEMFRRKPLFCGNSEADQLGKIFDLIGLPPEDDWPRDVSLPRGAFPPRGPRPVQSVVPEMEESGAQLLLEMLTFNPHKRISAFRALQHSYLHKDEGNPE
T3 sequence (P24385 whole entry partner, species assumed): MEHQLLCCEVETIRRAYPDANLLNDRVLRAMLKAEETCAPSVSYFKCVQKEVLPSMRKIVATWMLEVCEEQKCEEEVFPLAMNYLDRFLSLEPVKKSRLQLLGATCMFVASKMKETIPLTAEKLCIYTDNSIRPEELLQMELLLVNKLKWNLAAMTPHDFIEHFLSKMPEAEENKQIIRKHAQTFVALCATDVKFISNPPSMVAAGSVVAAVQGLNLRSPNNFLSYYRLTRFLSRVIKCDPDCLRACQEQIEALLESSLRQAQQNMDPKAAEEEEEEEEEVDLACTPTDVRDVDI

In general, pIC50 refers to −log10 of the IC50, conventionally taken in molar units. Consider `COc1cc(CN/C=C2\C(=O)NC(=O)c3ccc(Br)cc32)ccn1` [Example 222, (4Z)-6-Bromo-4-({[(2-methoxypyridin-4-yl)methyl]amino}methylene)isoquinoline-1,3(2H,4H)-dione], for which the negative logarithm of the IC50 (pIC50) with HCT-116 was 4.85; in the assay with BT474, 4.89; on cyclin E/CDK2 enzyme, 5.21; in the assay on MCF-7, 4.89; at cyclin B/CDK1 enzyme it was < 4.30; at cyclin D1/cdk 4 enzyme, 4.50. Further, the pIC50 in the assay on LoVo was 4.72.
Consider `CC1(C)Oc2cc(CN/C=C3\C(=O)NC(=O)c4ccc(Br)cc43)cc(O)c2O1` [Example 224, (4Z)-6-Bromo-4-({[(7-hydroxy-2,2-dimethyl-1,3-benzodioxol-5-yl)methyl]amino}methylene)isoquinoline-1,3(2H,4H)-dione], for which the pIC50 with HCT-116 is 5.19; in the assay on BT474, 5.02; at cyclin E/CDK2 enzyme, 5.40; in the assay on MCF-7 it was 5.13; on cyclin B/CDK1 enzyme, 4.34; on cyclin D1/cdk 4 enzyme, 6.77. Moreover, the pIC50 in the assay on LoVo was 5.10.
On to `O=C1NC(=O)c2ccc(Br)cc2/C1=C/NCc1cc[nH]c(=O)c1` [Example 225, (4Z)-6-Bromo-4-({[(2-oxo-1,2-dihydropyridin-4-yl)methyl]amino}methylene)isoquinoline-1,3(2H,4H)-dione], for which the pIC50 in the assay with HCT-116 is < 4.30; with BT474, 4.71; on cyclin E/CDK2 enzyme it was 5.57; in the assay with MCF-7 it was < 4.30; on cyclin B/CDK1 enzyme, < 4.30; on cyclin D1/cdk 4 enzyme, 6.25. Also, the pIC50 in the assay on LoVo was < 4.30.
As for `CN(C)CCSc1ccc(N/C=C2\C(=O)NC(=O)c3ccc(Br)cc32)cc1` [Example 229, (4Z)-6-Bromo-4-{[(4-{[2-(dimethylamino)ethyl]thio}phenyl)amino]methylene}isoquinoline-1,3(2H,4H)-dione], the pIC50 in the assay on HCT-116 was 5.44; with BT474, 5.40; on cyclin E/CDK2 enzyme, < 4.30; in the assay on MCF-7, 5.34; on cyclin B/CDK1 enzyme it was < 4.30; on cyclin D1/cdk 4 enzyme, 6.62. Moreover, the negative logarithm of the IC50 (pIC50) with LoVo was 5.07.
As for `CN(C)CCN(C)c1ccc(N/C=C2\C(=O)NC(=O)c3ccc(Br)cc32)cc1` [Example 231, (4Z)-6-Bromo-4-[({4-[[2-(dimethylamino)ethyl](methyl)amino]phenyl}amino)methylene]isoquinoline-1,3(2H,4H)-dione], the pIC50 is 5.39 with HCT-116; 5.08 in the assay with BT474; < 4.30 at cyclin E/CDK2 enzyme; 5.62 in the assay on MCF-7; 4.53 on cyclin B/CDK1 enzyme; 5.44 at cyclin D1/cdk 4 enzyme. For the same molecule, the pIC50 in the assay with LoVo was 5.00.
Regarding `CN1CCCN(c2ccc(N/C=C3\C(=O)NC(=O)c4ccc(Br)cc43)cc2)CC1` [Example 232, (4Z)-6-Bromo-4-({[4-(4-methyl-1,4-diazepan-1-yl)phenyl]amino}methylene)isoquinoline-1,3(2H,4H)-dione], the pIC50 with HCT-116 was 5.85; with BT474, 5.48; on cyclin E/CDK2 enzyme, < 4.30; in the assay on MCF-7, 5.68; on cyclin B/CDK1 enzyme, < 4.30; at cyclin D1/cdk 4 enzyme it was 5.57. The pIC50 in the assay with LoVo is 5.43.
Consider `CN1CCN(c2ccc(N/C=C3\C(=O)NC(=O)c4ccc(-c5ccoc5)cc43)cc2)CC1` [Example 236, (4Z)-6-(3-Furyl)-4-({[4-(4-methylpiperazin-1-yl)phenyl]amino}methylene)isoquinoline-1,3(2H,4H)-dione], for which the pIC50 with HCT-116 was 5.92; with BT474 it was 6.00; on cyclin E/CDK2 enzyme, < 4.30; in the assay with MCF-7 it was 5.96; on cyclin B/CDK1 enzyme, < 4.30; on cyclin D1/cdk 4 enzyme it was 6.66. The pIC50 in the assay with LoVo is 5.66.
On to `CN(C)CCS(=O)(=O)c1ccc(N/C=C2\C(=O)NC(=O)c3ccc(Br)cc32)cc1` [Example 243], for which the pIC50 in the assay on HCT-116 was 5.30; with BT474, 4.89; on cyclin E/CDK2 enzyme, 5.72; in the assay with MCF-7 it was 5.30; at cyclin B/CDK1 enzyme, 4.91; on cyclin D1/cdk 4 enzyme it was 5.92. Also, the pIC50 with LoVo was 4.92.
